The supplement of paper PMC11451515

Test system: SEM cells
Test: cell viability relative to DMSO control; higher = less cytotoxic
Settings: 48 h
Summary of the method: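 Before seeding, each leukemia line was adapted for at least four passages in each medium. NOMO1 or SEM cells (500 cells/well) and P12-Ichikawa cells (1000 cells/well) went into 1536-well plates at 5 μl, then received library compounds in DMSO by pin dosing across 11 threefold concentrations, 47 μM to 0.79 nM. Readout was CellTiter-Glo One luminescence after 48 h at 37°C, and viability is given as a per-plate percentage of DMSO wells, with cell-free wells as background.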

[1] = HPLM + 10% dialyzed FBS, 0.000781 µM
[2] = HPLM + 10% dialyzed FBS, 0.00234 µM
[3] = HPLM + 10% dialyzed FBS, 0.00702 µM
[4] = HPLM + 10% dialyzed FBS, 0.0211 µM
[5] = HPLM + 10% dialyzed FBS, 0.0632 µM
[6] = HPLM + 10% dialyzed FBS, 0.19 µM
[7] = HPLM + 10% dialyzed FBS, 0.569 µM
[8] = HPLM + 10% dialyzed FBS, 1.71 µM
[9] = HPLM + 10% dialyzed FBS, 5.12 µM
[10] = HPLM + 10% dialyzed FBS, 15.4 µM
[11] = HPLM + 10% dialyzed FBS, 46.1 µM
[12] = RPMI 5 mM glucose + 10% FBS, 0.000781 µM
[13] = RPMI 5 mM glucose + 10% FBS, 0.00234 µM
[14] = RPMI 5 mM glucose + 10% FBS, 0.00702 µM
[15] = RPMI 5 mM glucose + 10% FBS, 0.0211 µM
[16] = RPMI 5 mM glucose + 10% FBS, 0.0632 µM
[17] = RPMI 5 mM glucose + 10% FBS, 0.19 µM
[18] = RPMI 5 mM glucose + 10% FBS, 0.569 µM
[19] = RPMI 5 mM glucose + 10% FBS, 1.71 µM
[20] = RPMI 5 mM glucose + 10% FBS, 5.12 µM
[21] = RPMI 5 mM glucose + 10% FBS, 15.4 µM
[22] = RPMI 5 mM glucose + 10% FBS, 46.1 µM
[23] = RPMI 5 mM glucose + 10% dialyzed FBS, 0.000781 µM
[24] = RPMI 5 mM glucose + 10% dialyzed FBS, 0.00234 µM
[25] = RPMI 5 mM glucose + 10% dialyzed FBS, 0.00702 µM
[26] = RPMI 5 mM glucose + 10% dialyzed FBS, 0.0211 µM
[27] = RPMI 5 mM glucose + 10% dialyzed FBS, 0.0632 µM
[28] = RPMI 5 mM glucose + 10% dialyzed FBS, 0.19 µM
[29] = RPMI 5 mM glucose + 10% dialyzed FBS, 0.569 µM
[30] = RPMI 5 mM glucose + 10% dialyzed FBS, 1.71 µM
[31] = RPMI 5 mM glucose + 10% dialyzed FBS, 5.12 µM
[32] = RPMI 5 mM glucose + 10% dialyzed FBS, 15.4 µM
[33] = RPMI 5 mM glucose + 10% dialyzed FBS, 46.1 µM

CNC(=O)c1c(F)cccc1Nc1nc(Nc2cc3c(cc2OC)CCN3C(=O)CN(C)C)nc2[nH]ccc12
cell viability [1]: 84.8%
cell viability [2]: 92.2%
cell viability [3]: 94.8%
cell viability [4]: 100%
cell viability [5]: 83.5%
cell viability [6]: 58.3%
cell viability [7]: 40.5%
cell viability [8]: 31.9%
cell viability [9]: 22%
cell viability [10]: 3.15%
cell viability [11]: 1.16%
cell viability [12]: 90.3%
cell viability [13]: 90.5%
cell viability [14]: 83.2%
cell viability [15]: 97.9%
cell viability [16]: 88.7%
cell viability [17]: 51%
cell viability [18]: 34.8%
cell viability [19]: 27.3%
cell viability [20]: 13.5%
cell viability [21]: 1.01%
cell viability [22]: 0.384%
cell viability [23]: 93.6%
cell viability [24]: 96.8%
cell viability [25]: 93.6%
cell viability [26]: 105%
cell viability [27]: 94.7%
cell viability [28]: 58.4%
cell viability [29]: 32.8%
cell viability [30]: 30.2%
cell viability [31]: 13.4%
cell viability [32]: 2.8%
cell viability [33]: 0.739%

O=C(NC1CC1)c1cccc(-c2ccc3c(NC(=O)C4CC4)n[nH]c3c2)c1
cell viability [1]: 98.9%
cell viability [2]: 98.1%
cell viability [3]: 107%
cell viability [4]: 96.2%
cell viability [5]: 97.6%
cell viability [6]: 95.1%
cell viability [7]: 97.2%
cell viability [8]: 98.5%
cell viability [9]: 90%
cell viability [10]: 62.8%
cell viability [11]: 18.8%
cell viability [12]: 97.1%
cell viability [13]: 106%
cell viability [14]: 109%
cell viability [15]: 107%
cell viability [16]: 103%
cell viability [17]: 98.4%
cell viability [18]: 103%
cell viability [19]: 113%
cell viability [20]: 89.4%
cell viability [21]: 51.3%
cell viability [22]: 11.1%
cell viability [23]: 103%
cell viability [24]: 108%
cell viability [25]: 104%
cell viability [26]: 104%
cell viability [27]: 116%
cell viability [28]: 115%
cell viability [29]: 102%
cell viability [30]: 104%
cell viability [31]: 86.1%
cell viability [32]: 56.9%
cell viability [33]: 18.2%

C=C1C[C@@]2(O)O[C@@]3(C[C@H]2C(C)C)[C@@H](C)CC[C@@H]13
cell viability [1]: 90.3%
cell viability [2]: 85.5%
cell viability [3]: 68.4%
cell viability [4]: 109%
cell viability [5]: 105%
cell viability [6]: 108%
cell viability [7]: 23.6%
cell viability [8]: 41%
cell viability [9]: 100%
cell viability [10]: 108%
cell viability [11]: 95.1%
cell viability [12]: 117%
cell viability [13]: 109%
cell viability [14]: 78.5%
cell viability [15]: 125%
cell viability [16]: 113%
cell viability [17]: 122%
cell viability [18]: 21.8%
cell viability [19]: 41.5%
cell viability [20]: 116%
cell viability [21]: 108%
cell viability [22]: 111%
cell viability [23]: 81.8%
cell viability [24]: 110%
cell viability [25]: 77.2%
cell viability [26]: 97.3%
cell viability [27]: 96%
cell viability [28]: 104%
cell viability [29]: 21.5%
cell viability [30]: 29.9%
cell viability [31]: 105%
cell viability [32]: 111%
cell viability [33]: 93.2%

CCOc1ccccc1OCCNC(C)Cc1ccc(OC)c([S+](N)(=O)[O-])c1 (stereo unspecified)
cell viability [1]: 87.1%
cell viability [2]: 82.9%
cell viability [3]: 101%
cell viability [4]: 103%
cell viability [5]: 116%
cell viability [6]: 101%
cell viability [7]: 125%
cell viability [8]: 103%
cell viability [9]: 119%
cell viability [10]: 90.9%
cell viability [11]: 85.8%
cell viability [12]: 93.4%
cell viability [13]: 85.9%
cell viability [14]: 101%
cell viability [15]: 118%
cell viability [16]: 104%
cell viability [17]: 106%
cell viability [18]: 115%
cell viability [19]: 114%
cell viability [20]: 107%
cell viability [21]: 97.6%
cell viability [22]: 105%
cell viability [23]: 112%
cell viability [24]: 88.9%
cell viability [25]: 115%
cell viability [26]: 126%
cell viability [27]: 115%
cell viability [28]: 109%
cell viability [29]: 130%
cell viability [30]: 129%
cell viability [31]: 108%
cell viability [32]: 127%
cell viability [33]: 114%

NC/1=N/C(=O)N(/C=C1)[C@H]2CC[C@@H](CO)O2
cell viability [1]: 78.3%
cell viability [2]: 95%
cell viability [3]: 93.8%
cell viability [4]: 103%
cell viability [5]: 101%
cell viability [6]: 104%
cell viability [7]: 109%
cell viability [8]: 121%
cell viability [9]: 103%
cell viability [10]: 23%
cell viability [11]: 72.2%
cell viability [12]: 71.7%
cell viability [13]: 88.8%
cell viability [14]: 103%
cell viability [15]: 92%
cell viability [16]: 88.3%
cell viability [17]: 101%
cell viability [18]: 93.4%
cell viability [19]: 96.1%
cell viability [20]: 110%
cell viability [21]: 17%
cell viability [22]: 80.1%
cell viability [23]: 68.7%
cell viability [24]: 87.4%
cell viability [25]: 94.3%
cell viability [26]: 94.3%
cell viability [27]: 102%
cell viability [28]: 88.1%
cell viability [29]: 88.6%
cell viability [30]: 98.4%
cell viability [31]: 78%
cell viability [32]: 17.2%
cell viability [33]: 53.4%

CC(C)c1ccc2oc3nc(N)c(C(=O)O)cc3c(=O)c2c1
cell viability [1]: 106%
cell viability [2]: 109%
cell viability [3]: 96.6%
cell viability [4]: 109%
cell viability [5]: 126%
cell viability [6]: 108%
cell viability [7]: 128%
cell viability [8]: 115%
cell viability [9]: 106%
cell viability [10]: 118%
cell viability [11]: 102%
cell viability [12]: 116%
cell viability [13]: 131%
cell viability [14]: 122%
cell viability [15]: 122%
cell viability [16]: 145%
cell viability [17]: 134%
cell viability [18]: 150%
cell viability [19]: 121%
cell viability [20]: 134%
cell viability [21]: 140%
cell viability [22]: 137%
cell viability [23]: 98%
cell viability [24]: 118%
cell viability [25]: 134%
cell viability [26]: 141%
cell viability [27]: 141%
cell viability [28]: 131%
cell viability [29]: 143%
cell viability [30]: 127%
cell viability [31]: 146%
cell viability [32]: 146%
cell viability [33]: 129%

CCOC(=O)c1ncn2c1CN(C)C(=O)c1cc(F)ccc1-2
cell viability [1]: 78.9%
cell viability [2]: 104%
cell viability [3]: 87.2%
cell viability [4]: 93.3%
cell viability [5]: 92.9%
cell viability [6]: 94.3%
cell viability [7]: 97.2%
cell viability [8]: 90.7%
cell viability [9]: 79.8%
cell viability [10]: 84.6%
cell viability [11]: 52.9%
cell viability [12]: 94.6%
cell viability [13]: 111%
cell viability [14]: 112%
cell viability [15]: 92.5%
cell viability [16]: 105%
cell viability [17]: 98.6%
cell viability [18]: 98.8%
cell viability [19]: 93.6%
cell viability [20]: 67.5%
cell viability [21]: 57.1%
cell viability [22]: 46.8%
cell viability [23]: 99%
cell viability [24]: 107%
cell viability [25]: 109%
cell viability [26]: 113%
cell viability [27]: 116%
cell viability [28]: 131%
cell viability [29]: 117%
cell viability [30]: 87.3%
cell viability [31]: 75.6%
cell viability [32]: 79.6%
cell viability [33]: 43.9%
